For the experiment, the target named is T1, human cannabinoid CB2 receptor (Homo sapiens, UniProt P34972).
T1 construct: expressed in transfected cells; host or cells: human embryonic kidney (HEK) cells, transient, Semliki Forest virus system
Kind of experiment: Affinity for cannabinoid CB2 receptors, [3H]-CP-55,940 radioligand binding on membrane preparations of transfected HEK cells. The following applies: [3H]-CP-55,940 as radioligand, HEK cell membranes. As for the experimental part:
The affinity of the compounds of the invention for cannabinoid CB2 receptors was determined using membrane preparations of human embryonic kidney (HEK) cells in which the human cannabinoid CB2 receptor is transiently transfected using the Semliki Forest virus system in conjunction with [3H]-CP-55,940 as radioligand. After incubation of a cell membrane preparation with the [3H]-ligand, with or without addition of compounds of the invention, separation of bound and free ligand was performed by filtration over glassfiber filters. Radioactivity on the filter was measured by liquid scintillation counting.

The Ki is the equilibrium dissociation constant of an inhibitor or competing ligand from its target. Higher therefore signals weaker binding.

T1 sequence (P34972 whole entry): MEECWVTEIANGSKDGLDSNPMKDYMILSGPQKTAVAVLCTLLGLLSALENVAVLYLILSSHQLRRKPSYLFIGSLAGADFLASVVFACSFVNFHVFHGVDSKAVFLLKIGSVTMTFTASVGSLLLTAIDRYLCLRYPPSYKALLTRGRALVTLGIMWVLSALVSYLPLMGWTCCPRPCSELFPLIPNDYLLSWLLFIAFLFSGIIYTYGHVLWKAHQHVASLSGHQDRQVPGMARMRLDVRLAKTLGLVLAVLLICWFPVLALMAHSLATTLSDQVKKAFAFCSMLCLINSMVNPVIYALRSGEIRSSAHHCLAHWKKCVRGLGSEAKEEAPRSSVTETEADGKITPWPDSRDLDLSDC

For “2-Ethyl-2-{[5-pyrrolidin-1-yl-6-(2,2,2-trifluoro-ethoxy)-pyrazine-2-carbonyl]-amino}-pentanoic acid methyl ester [Example 14]”, the Ki turned out to be 0.063 µM. This counts as double-digit nanomolar. “6-Cyclopropylmethoxy-5-pyrrolidin-1-yl-pyrazine-2-carboxylic acid ((S)-1-hydroxymethyl-3-methyl-butyl)-amide [Example 4]” came in with a Ki of 0.044 µM. `CC(C)C[C@@H](CO)NC(=O)c1cnc(OCC2CC2)c(N2CCCCC2)n1` [Example 44, 5-Cyclopropylmethoxy-6-piperidin-1-yl-pyrazine-2-carboxylic acid ((S)-1-hydroxymethyl-3-methyl-butyl)-amide] displayed a Ki of 0.043 µM.
